From patent US6596772B1, “Phosphate mimics and methods of treatment using phosphatase inhibitors” (Sugen, Inc., priority 1999, dated 2003)

How the values were obtained:
[1] = tested on: PTPs; assay: Direct comparison of R groups against the PTPs; type: biochemical, human; settings: change of the R group from CF3SO2NH—
Description: (§1) The effect of the compounds on PTP was evaluated at 25° C. using pNPP or FDP as substrate. PTP was pre-incubated for fifteen minutes with various concentrations of compound. Substrate was then added at a fixed concentration (usually equal to the Km previously calculated). After 10 minutes, NaOH was added to stop the reaction. The hydrolysis of pNPP was followed at 410 nm on the Biotek Powerwave 200 microplate scanning spectrophotometer. The percent inhibition was calculated as follows: Percent Inhibition=[(control signal−compound signal)/control signal] ×100%. The IC50 was then determined by interpolation of a percent inhibition versus compound concentration plot.

[2] = target: T1, PTP ZETA (Homo sapiens, UniProt P23471); assay: PTP IC50 assay, pNPP or FDP as substrate; type: biochemical; settings: 25° C.
T1 construct: made in house; host or cells: E. coli BL-21 (pGEX 6P-1)
T1 sequence (P23471 1667-2028 limits assumed): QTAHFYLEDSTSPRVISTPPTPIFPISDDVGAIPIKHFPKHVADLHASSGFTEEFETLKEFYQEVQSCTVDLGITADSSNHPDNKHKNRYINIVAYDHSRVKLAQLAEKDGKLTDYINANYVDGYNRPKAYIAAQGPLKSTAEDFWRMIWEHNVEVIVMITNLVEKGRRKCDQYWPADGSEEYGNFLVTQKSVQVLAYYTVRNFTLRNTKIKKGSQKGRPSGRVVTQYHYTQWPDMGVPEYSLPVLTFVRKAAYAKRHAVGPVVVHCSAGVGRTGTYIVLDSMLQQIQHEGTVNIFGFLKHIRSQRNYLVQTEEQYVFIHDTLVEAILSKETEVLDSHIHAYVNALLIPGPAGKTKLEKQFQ
Description: (§2) The following in vitro assay procedure is preferred to determine the level of activity and effect of the different compounds of the present invention on one or more of the PTPs. Similar assays can be designed along the same lines for any PTP using techniques well known in the art.
(§3) The catalytic assays described herein are performed in a 96-well format. The general procedure begins with the determination of PTP optimal pH using a three-component buffer system that minimizes ionic strength variations across a wide range of buffer pH. Next, the Michaelis-Menten constant, or Km, is determined for each specific substrate-PTP system. This Km value is subsequently used as the substrate reaction concentration for compound screening. Finally, the test PTP is exposed to varying concentrations of compound for fifteen minutes and allowed to react with substrate for ten minutes. The results are plotted as percent inhibition versus compound concentration and the IC50 interpolated from the plot.
(§4) All assays were performed using pNPP or FDP as substrate. The optimum pH was determined for each PTP used.
(§5) PTPase activity was assayed at 25° C. in a 100-μl reaction mixture containing an appropriate concentration of pNPP or FDP as substrate. The reaction was initiated by addition of the PTP and quenched after 10 min by addition of 50 μl of IN NaOH. The non-enzymatic hydrolysis of the substrate was corrected by measuring the control without the addition of the enzyme. The amount of p-nitrophenol produced was determined from the absorbance at 410 nm. To determine the kinetic parameter, Km, the initial velocities were measured at various substrate concentrations and the data were fitted to the Michaelis equation where velocity=(Vmax*[S])/(Km+[S]), and [S]=substrate reaction concentration.
as §1
(§6) Plasmids designed for bacterial GST-PTP fusion protein expression were derived by insertion of PCR-generated human PTP fragments into pGEX vectors (Pharmacia Biotech). Several of these constructs were then used to subclone phosphatases into pFastBac-1for expression in Sf-9 insect cells. Oligonucleotides used for the initial amplification of PTP genes are shown below. The cDNAs were prepared using the Gilbo BRL superscript preamplification system on RNAs purchased from Clontech.
The PTP Zeta cDNA was amplified from human placenta single strand cDNA (Clontech RNA) using the following oligonucleotides 5′oligo: 5′-[…]-3′ (SEQ ID NO: 10) 3′oligo: 5′-[…]-3′ (SEQ ID NO: 11) and subsequently ligated into pGEX 6P-1 Eco RI/Xho I sites.

[3] = target: T2, PTP DEP1 (Homo sapiens, UniProt Q12913); assay: PTP IC50 assay, pNPP or FDP as substrate; type: biochemical; settings: 25° C.
T2 construct: GST-fusion proteins encompassing the entire cytoplasmic domain was done by PCR; made in house; host or cells: E. coli BL-21 (pGEX 2T)
T2 sequence (Q12913 997-1337 limits assumed): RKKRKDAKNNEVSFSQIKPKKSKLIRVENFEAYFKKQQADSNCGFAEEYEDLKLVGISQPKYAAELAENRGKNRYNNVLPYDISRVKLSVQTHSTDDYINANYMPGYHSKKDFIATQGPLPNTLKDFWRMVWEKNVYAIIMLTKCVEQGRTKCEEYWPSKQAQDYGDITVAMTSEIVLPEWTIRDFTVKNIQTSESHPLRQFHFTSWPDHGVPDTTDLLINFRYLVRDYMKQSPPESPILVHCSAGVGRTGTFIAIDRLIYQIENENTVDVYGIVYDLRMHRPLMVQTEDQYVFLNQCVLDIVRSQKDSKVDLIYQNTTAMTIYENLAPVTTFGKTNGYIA
Description: as §2, §3, §4, §5, §1, §6
The full length DEP1 cDNA was isolated from a human mammary cDNA library (Clontech). The construction of GST-fusion proteins encompassing the entire cytoplasmic domain was done by PCR using the following oligos; 5′oligo: 5′-[…]-3′ (SEQ ID NO: 20) 3′oligo: 5′-[…]-3′ (SEQ ID NO: 21) It was subsequently ligated into the Eco RI/Bam H1 sites of pGEX 2T.

[4] = target: T3, PTP PEST (Homo sapiens, UniProt Q05209); assay: PTP IC50 assay, pNPP or FDP as substrate; type: biochemical; settings: 25° C.
T3 construct: made in house; host or cells: E. coli BL-21 (pGEX 6P-1)
T3 sequence (Q05209 1-343 limits assumed): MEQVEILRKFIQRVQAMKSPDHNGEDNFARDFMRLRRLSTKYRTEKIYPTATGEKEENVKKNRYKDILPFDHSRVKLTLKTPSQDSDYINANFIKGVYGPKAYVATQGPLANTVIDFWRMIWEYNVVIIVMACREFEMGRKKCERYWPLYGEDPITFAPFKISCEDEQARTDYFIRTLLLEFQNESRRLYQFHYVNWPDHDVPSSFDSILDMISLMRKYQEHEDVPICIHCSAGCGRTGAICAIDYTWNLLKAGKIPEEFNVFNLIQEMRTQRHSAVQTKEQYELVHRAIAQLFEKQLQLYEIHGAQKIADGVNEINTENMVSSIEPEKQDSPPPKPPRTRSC
Description: as §2, §3, §4, §5, §1, §6
The PTP PEST CDNA was amplified from an HeLa cDNA library (Clonetech RNA) using the following oligonucleotides: 5′oligo: 5′-[…]-3′ (SEQ ID NO: 14) 3′oligo: 5′-[…]-3′ (SEQ ID NO: 15) It was subsequently ligated into the Eco RI/Xho I sites of pGEX 6P-1.

Row | Structure (SMILES) | activity relative to the CF3SO2NH— compound [1] | IC50 [2] | IC50 [3] | IC50 [4]
1 | CS(=O)(=O)Nc1ccc(Oc2ccc(Oc3ccc(NS(C)(=O)=O)cc3)cc2)cc1 [CH3SO2NH—] | dramatic decrease in activity | – | – | –
2 | O=S(=O)(c1ccc(COCc2ccc(S(=O)(=O)C(F)(F)F)cc2)cc1)C(F)(F)F [Example 1, Bis (4-trifluoromethylsulfonylbenzyl) ether] | – | > 100 µM | 24.2 µM | > 100 µM
3 | O=S(=O)(c1ccc(COc2ccc(S(=O)(=O)C(F)(F)F)cc2)cc1)C(F)(F)F [Example 2, 4-Trifluoromethylsulfonylbenzyl 4-trifluoromethylsulfonylphenyl ether] | – | > 100 µM | 16.5 µM | 25.6 µM
4 | O=C(c1ccccc1)N(Cc1ccc(S(=O)(=O)C(F)(F)F)cc1)Cc1ccc(S(=O)(=O)C(F)(F)F)cc1 [Example 3, N,N-Bis(4-trifluoromethylsulfonylbenzyl)benzamide] | – | > 100 µM | 40.9 µM | > 100 µM
5 | O=S(=O)(c1ccc(CCc2ccc(S(=O)(=O)C(F)(F)F)cc2)cc1)C(F)(F)F [Example 4, 1,2-Bis(4-trifluoromethylsulfonylphenyl)ethane] | – | > 100 µM | 26.1 µM | > 100 µM
6 | O=C(NCc1ccc(S(=O)(=O)C(F)(F)F)cc1)c1ccc(S(=O)(=O)C(F)(F)F)cc1 [Example 5, N-(4-Trifluoromethylsulfonylbenzyl)-4-trifluoromethylsulfonylbenzamide] | – | > 100 µM | > 100 µM | > 100 µM
7 | O=C(NCc1ccc(S(=O)(=O)C(F)(F)F)cc1)c1ccccc1 [Example 6, N-(4-Trifluoromethylsulfonylbenzyl)benzamide] | – | > 100 µM | > 100 µM | > 100 µM
8 | O=S(=O)(Nc1ccc(CCc2ccc(NS(=O)(=O)C(F)(F)F)cc2)cc1)C(F)(F)F [Example 66, 1,2-Bis(4-trifluoromethylsulfonamidophenyl)ethane] | – | > 100 µM | > 100 µM | 13.3 µM
9 | Cc1cc(NS(=O)(=O)C(F)(F)F)ccc1CCc1ccc(NS(=O)(=O)C(F)(F)F)cc1C [Example 67, 1,2-Bis(2-methyl-4-trifluoromethylsulfonamidophenyl)ethane] | – | > 100 µM | 85.6 µM | 10.5 µM
10 | CC(C)(COc1ccc(NS(=O)(=O)C(F)(F)F)cc1)COc1ccc(NS(=O)(=O)C(F)(F)F)cc1 [Example 68, 1,3-Bis(4-trifluoromethylsulfonamidophenoxy)-2,2-dimethylpropane] | – | > 100 µM | 25 µM | 9.33 µM
11 | O=S(=O)(Nc1ccc(OCCCOc2ccc(NS(=O)(=O)C(F)(F)F)cc2)cc1)C(F)(F)F [Example 69, 1,3-Bis(4-trifluoromethylsulfonamidophenoxy)propane] | – | > 100 µM | > 100 µM | 7.86 µM
12 | O=S(=O)(Nc1ccc(OCCCCOc2ccc(NS(=O)(=O)C(F)(F)F)cc2)cc1)C(F)(F)F [Example 70, 1,4-Bis(4-trifluoromethylsulfonamidophenoxy)butane] | – | > 100 µM | 24.5 µM | 6.75 µM
13 | O=S(=O)(Nc1ccc(Oc2ccc(Oc3ccc(NS(=O)(=O)C(F)(F)F)cc3)cc2)cc1)C(F)(F)F [Example 71, 1,4-Bis(4-trifluoromethylsulfonamidophenoxy)benzene] | – | 64.3 µM | 49 µM | 0.98 µM
14 | Nc1ccc(Oc2ccc(Oc3ccc(N)cc3)cc2)cc1 [NH2] | complete loss of activity | – | – | –
